Data set [1] is described as follows: Stability in plasma from esterase-deficient (ES1e) mice. In kind it is in vitro ADME. The settings on record: mouse, 37°C, up to 6 h, acetonitrile quench, LC-MS/MS. The method, then:
(§1) A solution of a Pin1 inhibitor was spiked into blank plasma at 1 μg/mL in various solutions, including an aqueous buffer (1× phosphate-buffered saline; Fisher Scientific, Fair Lawn, NJ), human plasma (Innovative Research Inc., Novi, MI), wild-type mouse plasma (Innovative Research Inc., Novi, MI), plasma form esterase-deficient mice (City of Hope, Duarte, CA), and plasma from Black 6-Cg mice (City of Hope, Duarte, CA).
(§2) The spiked plasma samples were incubated at 37°C for up to 6 h. At each designated time point, a 20 μL aliquot of the incubation sample was removed and quenched in 100 μL of acetonitrile. At the end of the incubation, the quenched samples were vortexed and centrifuged for 10 min at 4°C and 20,000 × g. The resulting supernatant was reconstituted and analyzed by LC-MS/MS.
(§3) Table S2. Stability half-life of agents reported in Table 1 after incubation at 37 °C in various media. Acq represents aqueous buffer composed of 1x phosphate buffered saline (Fisher Scientific, Fair Lawn, NJ); human represents human plasma (Innovative Research Inc., Novi, MI); mouse wt represents wild type mouse plasma (Innovative Research Inc., Novi, MI); mouse ES1e represents plasma form esterase deficient mice (City of Hope, Duarte, CA); mouse B6-Cg represents plasma from black 6-Cg mice (City of Hope, Duarte, CA). See Figure 1 for the chemical structures of these compounds.
(§4) Compound Acq Human Mouse Mouse ES1e Mouse

The nature of data set [2]: Stability in plasma from Black 6-Cg mice. In kind it is in vitro ADME. The note with it: Black 6-Cg (B6-Cg), mouse, 37°C, up to 6 h, acetonitrile quench, LC-MS/MS. How it is done:
as §1, §2, §3, §4

The next data set is described as follows: Human plasma stability. In kind it is in vitro ADME. The note with it: 37°C, up to 6 h, acetonitrile quench, LC-MS/MS. The method, then: as §1, §2, §3, §4
A short description of data set [3]: Wild-type mouse plasma stability. In kind it is in vitro ADME. The settings on record: 37°C, up to 6 h, acetonitrile quench, LC-MS/MS, values given in min, read-out: Stability half-life, Mouse WT (converted). How it is done: as §1, §2, §3, §4
A short description of data set [4]: Stability in aqueous buffer (1x PBS). In kind it is physicochemical. The settings on record: 1x phosphate buffered saline, 1 μg/mL, 37°C, up to 6 h, acetonitrile quench, LC-MS/MS. How it is done:
as §1, §2, §3, §4

Molecules are shown by their SMILES. Non-standard residues stand in square brackets, D forms with d. Residues, ends and D or L forms follow the SMILES beside them. *: point of attachment. Trp(6-Cl) = N[C@@H](Cc1c[nH]c2cc(Cl)ccc12)C(=O)O; Pip = O=C(O)[C@@H]1CCCCN1; ClAc = O=C(CCl)*

As usually defined, the half-life is the time in which the quantity being followed falls by half. With `NC(=O)[C@H](Cc1c[nH]c2ccccc12)NC(=O)[C@@H]1CCCCN1C(=O)[C@H](Cc1c[nH]c2cc(Cl)ccc12)NC(=O)CCl` [158H9] (ClAc-[Trp(6-Cl)]-[Pip]-Trp-NH2), the half-life at 1 μg/mL was greater than 5 h in data set [1], greater than 5 h in data set [2], roughly 3 h in the data set “Human plasma stability” and roughly 0.5 h in data set [3]. In addition, the “Stability half-life, Acq (aqueous buffer)” value in data set [4] was greater than 5 h.
As to `NC(=O)[C@H](Cc1c[nH]c2ccc(F)cc12)NC(=O)[C@@H]1CCCCN1C(=O)[C@@H]1Cc2c([nH]c3ccccc23)CN1C(=O)CCl` [164A10], the half-life at 1 μg/mL in data set [1] was roughly 2.5 h; in data set [2] it was roughly 2.5 h; in “Human plasma stability”, roughly 2.5 h; in data set [3] it was less than 0.167 h. Besides, in data set [4], the “Stability half-life, Acq (aqueous buffer)” value is greater than 5 h.

The values above are taken from paper PMC12657321, “Pre-clinical evaluation of a potent and effective Pin1-degrading agent in pancreatic cancer” (Molecular Therapy Oncology, 2025).
